Reference: the supplement of paper PMC9663587

Compound: T1, CCOc1cc2ncc(C#N)c(Nc3ccc(OCc4ccccn4)c(Cl)c3)c2cc1NC(=O)/C=C/CN(C)C [Neratinib/HKI272]
Assay: GR value, 72 h; higher = faster growth (1 = untreated, <0 = killing);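 note: breast cancer and non-malignant breast epithelial lines, nine half-log doses, viable cells counted by Hoechst and LIVE/DEAD dye imaging versus time-zero plates and DMSO controls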
Settings: 0.0003162 µM

Row | Cell Line | GR value
1 | MDAMB231 | 1.03 GR
2 | MDAMB330 | 0.967 GR
3 | MDAMB361 | 0.976 GR
4 | MDAMB415 | 1.06 GR
5 | MDAMB436 | 1 GR

Same assay, conditions: 0.001 µM

Row | Cell Line | GR value
6 | MDAMB231 | 0.999 GR
7 | MDAMB330 | 0.831 GR
8 | MDAMB361 | 0.848 GR
9 | MDAMB415 | 1.08 GR
10 | MDAMB436 | 0.997 GR

Same assay, conditions: 0.003162 µM

Row | Cell Line | GR value
11 | MDAMB231 | 0.978 GR
12 | MDAMB330 | 0.218 GR
13 | MDAMB361 | 0.824 GR
14 | MDAMB415 | 1.13 GR
15 | MDAMB436 | 1.03 GR

Same assay, conditions: 0.01 µM

Row | Cell Line | GR value
16 | MDAMB231 | 1.05 GR
17 | MDAMB330 | -0.306 GR
18 | MDAMB361 | 0.783 GR
19 | MDAMB415 | 1.1 GR
20 | MDAMB436 | 1.04 GR

Same assay, conditions: 0.03162 µM

Row | Cell Line | GR value
21 | MDAMB231 | 1.03 GR
22 | MDAMB330 | -0.546 GR
23 | MDAMB361 | 0.639 GR
24 | MDAMB415 | 1.06 GR
25 | MDAMB436 | 0.993 GR

Same assay, conditions: 0.1 µM

Row | Cell Line | GR value
26 | MDAMB231 | 1.01 GR
27 | MDAMB330 | -0.592 GR
28 | MDAMB361 | 0.514 GR
29 | MDAMB415 | 0.989 GR
30 | MDAMB436 | 0.878 GR

Same assay, conditions: 0.3162 µM

Row | Cell Line | GR value
31 | MDAMB231 | 0.917 GR
32 | MDAMB330 | -0.599 GR
33 | MDAMB361 | 0.486 GR
34 | MDAMB415 | 0.889 GR
35 | MDAMB436 | 0.641 GR

Same assay, conditions: 1 µM

Row | Cell Line | GR value
36 | MDAMB231 | 0.688 GR
37 | MDAMB330 | -0.656 GR
38 | MDAMB361 | 0.241 GR
39 | MDAMB415 | 0.737 GR
40 | MDAMB436 | 0.43 GR

Same assay, conditions: 3.162 µM

Row | Cell Line | GR value
41 | MDAMB231 | -0.0968 GR
42 | MDAMB330 | -0.62 GR
43 | MDAMB361 | -0.516 GR
44 | MDAMB415 | 0.0984 GR
45 | MDAMB436 | 0.0253 GR

Compound: CN(C)C/C=C/C(=O)Nc1ccc(C(=O)Nc2cccc(Nc3ncc(Cl)c(-c4c[nH]c5ccccc45)n3)c2)cc1 [THZ1]
Assay: as above
Settings: 0.0001 µM

Row | Cell Line | GR value
46 | MDAMB231 | 1.02 GR
47 | MDAMB330 | 1.19 GR
48 | MDAMB361 | 0.939 GR
49 | MDAMB415 | 0.979 GR
50 | MDAMB436 | 0.928 GR

Same assay, conditions: 0.0003162 µM

Row | Cell Line | GR value
51 | MDAMB231 | 0.992 GR
52 | MDAMB330 | 0.925 GR
53 | MDAMB361 | 0.772 GR
54 | MDAMB415 | 0.999 GR
55 | MDAMB436 | 1.07 GR

Same assay, conditions: 0.001 µM

Row | Cell Line | GR value
56 | MDAMB231 | 0.993 GR
57 | MDAMB330 | 1.1 GR
58 | MDAMB361 | 0.986 GR
59 | MDAMB415 | 0.995 GR
60 | MDAMB436 | 1.03 GR

Same assay, conditions: 0.003162 µM

Row | Cell Line | GR value
61 | MDAMB231 | 1.03 GR
62 | MDAMB330 | 0.734 GR
63 | MDAMB361 | 0.521 GR
64 | MDAMB415 | 0.857 GR
65 | MDAMB436 | 1.02 GR

Same assay, conditions: 0.01 µM

Row | Cell Line | GR value
66 | MDAMB231 | 0.972 GR
67 | MDAMB330 | 0.455 GR
68 | MDAMB361 | 0.463 GR
69 | MDAMB415 | 0.797 GR
70 | MDAMB436 | 1.1 GR

Same assay, conditions: 0.03162 µM

Row | Cell Line | GR value
71 | MDAMB231 | 0.701 GR
72 | MDAMB330 | -0.545 GR
73 | MDAMB361 | 0.153 GR
74 | MDAMB415 | 0.524 GR
75 | MDAMB436 | 1.02 GR

Same assay, conditions: 0.1 µM

Row | Cell Line | GR value
76 | MDAMB231 | 0.26 GR
77 | MDAMB330 | -0.924 GR
78 | MDAMB361 | -0.511 GR
79 | MDAMB415 | 0.216 GR
80 | MDAMB436 | 0.478 GR

Same assay, conditions: 0.3162 µM

Row | Cell Line | GR value
81 | MDAMB231 | -0.0565 GR
82 | MDAMB330 | -0.898 GR
83 | MDAMB361 | -0.804 GR
84 | MDAMB415 | -0.218 GR
85 | MDAMB436 | 0.229 GR

Same assay, conditions: 1 µM

Row | Cell Line | GR value
86 | MDAMB231 | -0.5 GR
87 | MDAMB330 | -0.945 GR
88 | MDAMB361 | -0.71 GR
89 | MDAMB415 | -0.408 GR
90 | MDAMB436 | -0.138 GR

Compound: T1, Neratinib/HKI272
Assay: increase in dead-cell fraction, 72 h; higher = more death;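 note: breast cancer cell lines in 384-well plates, stained with Hoechst plus LIVE/DEAD far red dye and imaged, cells above an LDR intensity threshold counted dead, Hoechst-negative corpses included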
Settings: 0.0003162 µM

Row | Cell Line | increase in dead-cell fraction
91 | MDAMB231 | 0.0013
92 | MDAMB330 | -0.0001
93 | MDAMB361 | 0.0068
94 | MDAMB415 | -0.0004
95 | MDAMB436 | 0.0013

Same assay, conditions: 0.001 µM

Row | Cell Line | increase in dead-cell fraction
96 | MDAMB231 | -0.0029
97 | MDAMB330 | 0.0011
98 | MDAMB361 | 0.0063
99 | MDAMB415 | 0
100 | MDAMB436 | 0.0034

Same assay, conditions: 0.003162 µM

Row | Cell Line | increase in dead-cell fraction
101 | MDAMB231 | 0.0044
102 | MDAMB330 | 0.0102
103 | MDAMB361 | 0.028
104 | MDAMB415 | 0.0031
105 | MDAMB436 | -0.0005

Same assay, conditions: 0.01 µM

Row | Cell Line | increase in dead-cell fraction
106 | MDAMB231 | 0.0008
107 | MDAMB330 | 0.043
108 | MDAMB361 | 0.0198
109 | MDAMB415 | -0.0015
110 | MDAMB436 | 0.0014

Same assay, conditions: 0.03162 µM

Row | Cell Line | increase in dead-cell fraction
111 | MDAMB231 | 0.0108
112 | MDAMB330 | 0.0716
113 | MDAMB361 | 0.0227
114 | MDAMB415 | 0.0006
115 | MDAMB436 | 0.0028

Same assay, conditions: 0.1 µM

Row | Cell Line | increase in dead-cell fraction
116 | MDAMB231 | 0.0067
117 | MDAMB330 | 0.0731
118 | MDAMB361 | 0.0339
119 | MDAMB415 | 0.0036
120 | MDAMB436 | 0.0066

Same assay, conditions: 0.3162 µM

Row | Cell Line | increase in dead-cell fraction
121 | MDAMB231 | 0.0175
122 | MDAMB330 | 0.0685
123 | MDAMB361 | 0.0406
124 | MDAMB415 | 0.0023
125 | MDAMB436 | 0.0167

Same assay, conditions: 1 µM

Row | Cell Line | increase in dead-cell fraction
126 | MDAMB231 | 0.0509
127 | MDAMB330 | 0.0784
128 | MDAMB361 | 0.105
129 | MDAMB415 | 0.0057
130 | MDAMB436 | 0.0223

Same assay, conditions: 3.162 µM

Row | Cell Line | increase in dead-cell fraction
131 | MDAMB231 | 0.378
132 | MDAMB330 | 0.0756
133 | MDAMB361 | 0.435
134 | MDAMB415 | 0.017
